Patent publication US10093642B2, “Multitarget hedgehog pathway inhibitors and uses thereof” (UNIVERSITA' DEGLI STUDI DI SIENA, priority 2013, dated 2018)
“Also recorded” adds a separate entry of the source.

Experiments:
Type in all cases: cell-based
[1] = tested on: Hh pathway (Gli-RE reporter, activated by SMO agonist SAG); assay: Gli-luciferase reporter assay in SAG-treated NIH 3T3 Shh-light II cells
Method: FIG. 4. Effect of active natural compounds identified by the pharmacophore screening in a luciferase assay, where the gene reporter was Gli1 and the pathway was activated by the SAG molecule, a potent SMO agonist. Natural compounds were tested at three different concentrations (1, 10 and 20 μM) and their activity was compared to that of cyclopamine, the natural compound reference inhibitor of the Hedgehog pathway, which was tested at the same doses (1, 10 and 20 μM). On both graphs the activity of cyclopamine is reported as reference standard. (A) cyclopamine, 2,4,5,3′,4′-penta-Ome chalcone and Auriculasin; (B) cyclopamine, Martinoside, Jaceidin, 2,4,5,3′,4′-penta-Ome chalcone, 3,4-di-MDO-2′,4′,5′-tri-Ome dihydrochalcone.
FIG. 6. Dose-response curve of Glabrescione B in SAG (Smoothened Agonist, 200 nM) treated NIH 3T3 Shh-light II (Shh-LII) cells. Treatment time was 48 h and normalization was against Renilla luciferase. Shown is the fold increase of Hh reporter activity compared with cells not treated with SAG.
FIG. 19. Effect of derivatives NT8, NT9, NT10, NT11, NT12, NT13, NT14 and NT15 on the Hedgehog pathway, measured at 5 μM dose in a luciferase assay where the gene reporter was Gli1 and the pathway was activated by the SAG molecule, a potent SMO agonist. […]
To investigate the inhibitory properties of Glabrescione B on Hh signaling, the inventors examined its effects in NIH 3T3 Shh-light II (Shh-LII) cells stably incorporating an Hh-responsive (Gli-RE) reporter, in which induction of the pathway occurs following treatment with the SMO agonist SAG. […] The IC50 in this assay was 0.8 μM.
The ability of Glabrescione B to suppress Hh signaling was assessed in a cellular context of Hh pathway induction. To this end, the antagonist properties of Glabrescione B were determined in Shh Light II (ATCC, cat. # CRL-2795), a murine fibroblast NIH 3T3 cell line. These cells, stably incorporating the Gli-luc reporter and the pRL-TK Renilla reniformis (as described in Taipale, Chen et al. 2000) are a standard tool used to assay Hh pathway activity. The cells that reached the confluence were treated for 48 h with the SMO agonist SAG (200 nM, Alexis, cat. #ALX-270-426-M001) in absence or in presence of Glabrescione B at the amount indicated in FIG. 6. […] Control cells were treated with only DMSO (0.5%, SERVA, cat. #39757.02) Determination of luciferase activities was carried out using the Dual-Luciferase assay according to manufacturer's instructions (Dual-Luciferase® Reporter assay system; Promega, cat. # E1980). All presented data are firefly luciferase activity reported to the Renilla control activity. […] IC50 of 0.8 μM, represents the concentration of Glabrescione B necessary to have fifty percent of inhibition.
Evaluation of the Hh inhibitory activity of these molecules at 5 μM was preliminarily conducted in vitro on Shh Light II cells (see example 2).

[2] = tested on: Cancer stem cells (CSCs) isolated from murine Ptch+/− MB; assay: Neurosphere forming assay (self-renewal of MB CSCs); settings: seven days of treatment; KAAD 1 μM as comparator
Method: FIG. 14. […] After seven days of treatment the number of secondary neurospheres derived from a known number of single cells was counted. The self-renewal CSCs capability is expressed as percentage of neurospheres forming cells.
Hh activity preferentially associates to stemness features. For this reason, the Hh pathway antagonist Glabrescione B has also been investigated for its ability to modulate the behavior of MB cancer stem cells (CSCs).
Another experiment was carried out to determine the ability of Glabrescione B to suppress MB CSCs self-renewal. To this aim neurospheres derived from murine Ptch^+/− MB were treated with Glabrescione B at different concentrations and the percentage of neurospheres-forming cells was measured. For the neurosphere forming assay, cells were plated at clonal density (1-2 cells/mm2) into 96-well plates and cultured in selective medium as described above.
The results shown in FIG. 14 indicate that Glabrescione B has an inhibitory effect on self-renewal of cancer stem cells.

[3] = tested on: HepG2 hepatocellular carcinoma cells; assay: Effect on Hh-independent HepG2 cells
[4] = tested on: ASZ001 basal cell carcinoma cells; assay: ASZ001 BCC cell growth, cell death and Gli1 mRNA; settings: in vitro treatment
Method: FIG. 15. Inhibition of Gli-dependent BCC tumor cell growth. ASZ001 BCC cells were treated with Glabrescione B (GlaB) 5 μM or DMSO only (A) or with Glabrescione B 1, 5 and 10 μM (GlaB) or DMSO only (B). After the indicated times, a trypan blue count was performed to determine the growth rate (A) or the percentage of cell death (B). (C) Gli1 mRNA expression levels were determined by qRT-PCR after treatment of ASZ001 BCC cells with Glabrescione B (GlaB) or DMSO only for the indicated times. Results are expressed in arbitrary units as relative quantification normalized with endogenous control β2-microglobulin and HPRT. […] Error bars indicate SD. *P<0.05 vs DMSO.
Total RNA was isolated with Trizol (Invitrogen, Eugene, Or, USA) and reverse transcribed with Superscript II reverse transcriptase and random hexamers (Invitrogen, Eugene, Or, USA). Quantitative real-time PCR (qRT-PCR) analysis of Gli1, Gli2, Ptch1, Ptch2, Nanog, Oct-4, Cyclin D1, Cyclin D2, Nmyc, HIP1, Sfrp1, Bmp2, IGF2, β-2 microglobulin, HPRT, mRNA expression was performed on each cDNA sample using the ABI Prism 7900HT Sequence Detection System employing Assay-on-Demand Reagents (Applied Biosystems, Foster City, Calif., USA). […]

SMILES: COc1cc(OC)c2c(=O)c(-c3ccc(OCC=C(C)C)c(OCC=C(C)C)c3)coc2c1 [Glabrescione B, 3-(3′,4′-bis(3-methylbut-2-enyloxy)phenyl)-5,7-dimethoxy-4H-chromen-4-one]
- effect on Hh pathway in luciferase assay ([1]; Gli1 gene reporter, pathway activated by SAG, cyclopamine as reference): inhibit the Hh pathway; also recorded: most potent lead
- IC50 ([1]; Mus musculus, SAG 200 nM, 48 h, normalized to Renilla, read-out: IC50 of luciferase reporter activity (Hh signaling)): 800 nM
- inhibition at 5 µM ([1]; Mus musculus, at 5 μM, highly active class): > 50%
- MB CSCs self-renewal (percentage of neurospheres-forming cells) [2]: suppressive effect on MB CSCs self-renewal
- effect on HepG2 cells [3]: no effect
- BCC cell proliferation [4]: impaired
- Gli1 mRNA in BCC cells ([4]; qRT-PCR): suppression of Gli1 mRNA
